Structures can show the parent of a compound that is named as a salt. Where two headings read alike, the source gives them in different places.
Test system: HIV-1 strain 92HT599
Assay: Antiviral activity, p24 estimation in HIV-1 92HT599 infected MT2 cells
Type: cell-based
Conditions: ~96 hours
Method: MT2 cells were infected with HIV-1 strain 92HT599 (10 TCID 50/30000 cells). The infected cells were plated at the concentration of ˜30,000 cells per well in 96 well plate. Test compound was added to the micro plate in defined format with the final concentration of DMSO (vehicle) is not more than 1%. Incubation was carried out in CO2 incubator for ˜96 hours for viral infection. At the end of incubation period an aliquot from each well was taken for p24 estimation. The quantitation of p24 is an index for antiviral activity of the compound. Percent inhibition was calculated with reference to control values (vehicle controls). P-24 estimation was carried out using Advance biosciences kit as per the procedure detailed by supplier.

[1] = Human immunodeficiency virus 1, 0% serum, read-out: 92HT599-Antiviral activity IC50 (nM) 0%
[2] = Human immunodeficiency virus 1, 40% serum, read-out: 92HT599-Antiviral activity IC50 (nM) 40%

Structure (SMILES): CC(C)C1=C2[C@H]3CC[C@@H]4[C@@]5(C)CC[C@H](OC(=O)[C@H]6C[C@@H](C(=O)O)C6(C)C)C(C)(C)[C@@H]5CC[C@@]4(C)[C@]3(C)CC[C@@]2(NC(=O)N(CCN(C)C)Cc2ccc(Cl)cc2)CC1=O [Example 1, (1R,3S)-3-((((3aR,5aR,5bR,7aR,9S,11aR,11bR,13aS)-3a-(3-(4-chlorobenzyl)-3-(2-(dimethylamino)ethyl)ureido)-1-isopropyl-5a,5b,8,8,11a-pentamethyl-2-oxo-3,3a,4,5,5a,5b,6,7,7a,8,9,10,11,11a,11b,12,13,13a-octadecahydro-2H-cyclopenta[a]chrysen-9-yl)oxy)carbonyl)-2,2-dimethylcyclobutane-1-carboxylic acid hydrochloride]
- IC50 [1]: < 5 nM
- IC50 [2]: > 50 nM

Structure (SMILES): CC(C)C1=C2[C@H]3CC[C@@H]4[C@@]5(C)CC[C@H](OC(=O)[C@H]6C[C@@H](C(=O)O)C6(C)C)C(C)(C)[C@@H]5CC[C@@]4(C)[C@]3(C)CC[C@@]2(NC(=O)N2CCC[C@H]2c2ncc(-c3ccccc3)n2CCN(C)C)CC1=O [Example 2, (1R,3S)-3-((((3aR,5aR,5bR,7aR,9S,11aR,11bR,13aS)-3a-((S)-2-(1-(2-(dimethylamino)ethyl)-5-phenyl-1H-imidazol-2-yl)pyrrolidine-1-carboxamido)-1-isopropyl-5a,5b,8,8,11a-pentamethyl-2-oxo-3,3a,4,5,5a,5b,6,7,7a,8,9,10,11,11a,11b,12,13,13a-octadecahydro-2H-cyclopenta[a]chrysen-9-yl)oxy)carbonyl)-2,2-dimethylcyclobutane-1-carboxylic acid]
- IC50 [1]: < 5 nM
- IC50 [2]: < 30 nM

Structure (SMILES): CC(C)C1=C2[C@H]3CC[C@@H]4[C@@]5(C)CC[C@H](OC(=O)[C@H]6C[C@@H](C(=O)O)C6(C)C)C(C)(C)[C@@H]5CC[C@@]4(C)[C@]3(C)CC[C@@]2(NC(=O)N2CCC[C@H]2c2ncc(-c3ccccc3)[nH]2)CC1=O [Example 3, (1R,3S)-3-((((3aR,5aR,5bR,7aR,9S,11aR,11bR,13aS)-1-isopropyl-5a,5b,8,8,11a-pentamethyl-2-oxo-3a-((S)-2-(5-phenyl-1H-imidazol-2-yl)pyrrolidine-1-carboxamido)-3,3a,4,5,5a,5b,6,7,7a,8,9,10,11,11a,11b,12,13,13a-octadecahydro-2H-cyclopenta[a]chrysen-9-yl)oxy)carbonyl)-2,2-dimethylcyclobutane-1-carboxylic acid]
- IC50 [1]: 5.01 to 10 nM
- IC50 [2]: 30 to 50 nM

Structure (SMILES): CC(C)C1=C2[C@H]3CC[C@@H]4[C@@]5(C)CC[C@H](OC(=O)[C@H]6C[C@@H](C(=O)O)C6(C)C)C(C)(C)[C@@H]5CC[C@@]4(C)[C@]3(C)CC[C@@]2(NC(=O)NC2(c3ccc(Cl)cc3)CC2)CC1=O [Example 4, (1R,3S)-3-((((3aR,5aR,5bR,7aR,9S,11aR,11bR,13aS)-3a-(3-(1-(4-chlorophenyl)cyclopropyl)ureido)-1-isopropyl-5a,5b,8,8,11a-pentamethyl-2-oxo-3,3a,4,5,5a,5b,6,7,7a,8,9,10,11,11a,11b,12,13,13a-octadecahydro-2H-cyclopenta[a]chrysen-9-yl)oxy)carbonyl)-2,2-dimethylcyclobutane-1-carboxylic acid]
- IC50 [1]: < 5 nM
- IC50 [2]: > 50 nM

Structure (SMILES): CC(C)C1=C2[C@H]3CC[C@@H]4[C@@]5(C)CC[C@H](OC(=O)[C@H]6C[C@@H](C(=O)O)C6(C)C)C(C)(C)[C@@H]5CC[C@@]4(C)[C@]3(C)CC[C@@]2(NC(=O)NC(C)(C)c2ccc(Cl)cc2)CC1=O [Example 5, (1R,3S)-3-((((3aR,5aR,5bR,7aR,9S,11aR,11bR,13aS)-3a-(3-(2-(4-chlorophenyl)propan-2-yl)ureido)-1-isopropyl-5a,5b,8,8,11a-pentamethyl-2-oxo-3,3a,4,5,5a,5b,6,7,7a,8,9,10,11,11a,11b,12,13,13a-octadecahydro-2H-cyclopenta[a]chrysen-9-yl)oxy)carbonyl)-2,2-dimethylcyclobutane-1-carboxylic acid]
- IC50 [1]: < 5 nM
- IC50 [2]: < 30 nM

Structure (SMILES): CC(C)C1=C2[C@H]3CC[C@@H]4[C@@]5(C)CC[C@H](OC(=O)[C@H]6C[C@@H](C(=O)O)C6(C)C)C(C)(C)[C@@H]5CC[C@@]4(C)[C@]3(C)CC[C@@]2(NC(=O)N(CCN(C)C)CC2(c3ccc(Cl)cc3)CC2)CC1=O [Example 6, (1R,3S)-3-((((3aR,5aR,5bR,7aR,9S,11aR,11bR,13aS)-3a-(3-((1-(4-chlorophenyl)cyclopropyl)methyl)-3-(2-(dimethylamino)ethyl)ureido)-1-isopropyl-5a,5b,8,8,11a-pentamethyl-2-oxo-3,3a,4,5,5a,5b,6,7,7a,8,9,10,11,11a,11b,12,13,13a-octadecahydro-2H-cyclopenta[a]chrysen-9-yl)oxy)carbonyl)-2,2-dimethylcyclobutane-1-carboxylic acid]
- IC50 [1]: < 5 nM
- IC50 [2]: 30 to 50 nM

Structure (SMILES): CC(C)C1=C2[C@H]3CC[C@@H]4[C@@]5(C)CC[C@H](OC(=O)[C@H]6C[C@@H](C(=O)O)C6(C)C)C(C)(C)[C@@H]5CC[C@@]4(C)[C@]3(C)CC[C@@]2(NC(=O)NCc2ccc(Cl)cc2)CC1=O [Example 7, (1R,3S)-3-((((3aR,5aR,5bR,7aR,9S,11aR,11bR,13aS)-3a-(3-(4-chlorobenzyl)ureido)-1-isopropyl-5a,5b,8,8,11a-pentamethyl-2-oxo-3,3a,4,5,5a,5b,6,7,7a,8,9,10,11,11a,11b,12,13,13a-octadecahydro-2H-cyclopenta[a]chrysen-9-yl)oxy)carbonyl)-2,2-dimethylcyclobutane-1-carboxylic acid]
- IC50 [1]: 5.01 to 10 nM
- IC50 [2]: 30 to 50 nM

Structure (SMILES): Cc1nnc(C(C)C)n1C1CC2CCC(C1)N2C(=O)N[C@@]12CC[C@]3(C)[C@H](CC[C@@H]4[C@@]5(C)CC[C@H](OC(=O)[C@H]6C[C@@H](C(=O)O)C6(C)C)C(C)(C)[C@@H]5CC[C@]43C)C1=C(C(C)C)C(=O)C2 (stereo partly drawn) [Example 8, (1R,3S)-3-((((3aR,5aR,5bR,7aR,9S,11aR,11bR,13aS)-1-isopropyl-3a-((1R,3S,5S)-3-(3-isopropyl-5-methyl-4H-1,2,4-triazol-4-yl)-8-azabicyclo[3.2.1]octane-8-carboxamido)-5a,5b,8,8,11a-pentamethyl-2-oxo-3,3a,4,5,5a,5b,6,7,7a,8,9,10,11,11a,11b,12,13,13a-octadecahydro-2H-cyclopenta[a]chrysen-9-yl)oxy)carbonyl)-2,2-dimethylcyclobutane-1-carboxylic acid]
- IC50 [1]: 5.01 to 10 nM
- IC50 [2]: > 50 nM

Structure (SMILES): CC(C)C1=C2[C@H]3CC[C@@H]4[C@@]5(C)CC[C@H](OC(=O)[C@H]6C[C@@H](C(=O)O)C6(C)C)C(C)(C)[C@@H]5CC[C@@]4(C)[C@]3(C)CC[C@@]2(NC(=O)NC(C)(C)c2ncc(-c3ccccc3)[nH]2)CC1=O [Example 10, (1R,3S)-3-((((3aR,5aR,5bR,7aR,9S,11aR,11bR,13aS)-1-isopropyl-5a,5b,8,8,11a-pentamethyl-2-oxo-3a-(3-(2-(5-phenyl-1H-imidazol-2-yl)propan-2-yl)ureido)-3,3a,4,5,5a,5b,6,7,7a,8,9,10,11,11a,11b,12,13,13a-octadecahydro-2H-cyclopenta[a]chrysen-9-yl)oxy)carbonyl)-2,2-dimethylcyclobutane-1-carboxylic acid]
- IC50 [1]: < 5 nM
- IC50 [2]: < 30 nM

Structure (SMILES): CC(C)C1=C2[C@H]3CC[C@@H]4[C@@]5(C)CC[C@H](OC(=O)[C@H]6C[C@@H](C(=O)O)C6(C)C)C(C)(C)[C@@H]5CC[C@@]4(C)[C@]3(C)CC[C@@]2(NC(=O)N(CCN2CCCCC2)Cc2ccc(Cl)cc2)CC1=O [Example 11, (1R,3S)-3-((((3aR,5aR,5bR,7aR,9S,11aR,11bR,13aS)-3a-(3-(4-chlorobenzyl)-3-(2-(piperidin-1-yl)ethyl)ureido)-1-isopropyl-5a,5b,8,8,11a-pentamethyl-2-oxo-3,3a,4,5,5a,5b,6,7,7a,8,9,10,11,11a,11b,12,13,13a-octadecahydro-2H-cyclopenta[a]chrysen-9-yl)oxy)carbonyl)-2,2-dimethylcyclobutane-1-carboxylic acid hydrochloride]
- IC50 [1]: < 5 nM
- IC50 [2]: 30 to 50 nM

Structure (SMILES): Cc1nnc(C(C)C)n1CCN1CCN(C(=O)N[C@@]23CC[C@]4(C)[C@H](CC[C@@H]5[C@@]6(C)CC[C@H](OC(=O)[C@H]7C[C@@H](C(=O)O)C7(C)C)C(C)(C)[C@@H]6CC[C@]54C)C2=C(C(C)C)C(=O)C3)CC1 [Example 12, (1R,3S)-3-((((3aR,5aR,5bR,7aR,9S,11aR,11bR,13aS)-1-isopropyl-3a-(4-(2-(3-isopropyl-5-methyl-4H-1,2,4-triazol-4-yl)ethyl)piperazine-1-carboxamido)-5a,5b,8,8,11a-pentamethyl-2-oxo-3,3a,4,5,5a,5b,6,7,7a,8,9,10,11,11a,11b,12,13,13a-octadecahydro-2H-cyclopenta[a]chrysen-9-yl)oxy)carbonyl)-2,2-dimethycyclobutane-1-carboxylic acid]
- IC50 [1]: > 10 nM
- IC50 [2]: > 50 nM

Structure (SMILES): CC(C)C1=C2[C@H]3CC[C@@H]4[C@@]5(C)CC[C@H](OC(=O)[C@H]6C[C@@H](C(=O)O)C6(C)C)C(C)(C)[C@@H]5CC[C@@]4(C)[C@]3(C)CC[C@@]2(NC(=O)N2CCC[C@H]2CN2CCCC2)CC1=O [Example 13, (1R,3S)-3-((((3aR,5aR,5bR,7aR,9S,11aR,11bR,13aS)-1-isopropyl-5a,5b,8,8,11a-pentamethyl-2-oxo-3a-((S)-2-(pyrrolidin-1-ylmethyl)pyrrolidine-1-carboxamido)-3,3a,4,5,5a,5b,6,7,7a,8,9,10,11,11a,11b,12,13,13a-octadecahydro-2H-cyclopenta[a]chrysen-9-yl)oxy)carbonyl)-2,2-dimethylcyclobutane-1-carboxylic acid]
- IC50 [1]: < 5 nM
- IC50 [2]: > 50 nM

— patent publication US10669305B2, “C-3 novel triterpenone with C-28 urea derivatives as HIV inhibitors” (Hetero Labs Limited, priority 2015, dated 2020)
